According to patent publication US20210283099A1, “CDC7 KINASE INHIBITORS AND USES THEREOF” (SLOAN-KETTERING INSTITUTE FOR CANCER RESEARCH, priority 2010, published 2021):

Assays:
[1] = target: human recombinant Cdc7 (Homo sapiens, UniProt O00311); experiment: In vitro kinase reaction, Mcm2 phosphorylation by Cdc7; format: biochemical; conditions: radioactive ATP, SDS-PAGE, autoradiography
Procedure: FIG. 8. Mcm2 phosphorylation by Cdc7: Phosphorylated forms of Mcm2 migrate […] in SDS-PAGE gels. Using highly purified human recombinant Cdc7 and Mcm2, standard in vitro kinase reactions were performed in the presence of radioactive ATP and products were separated on SDS-PAGE gels, stained with silver, and autoradiography was performed to detect phosphorylated forms of Mcm2.

[2] = test system: OVCAR3 cells; experiment: OVCAR3 intraperitoneal ovarian cancer model in SCID-Beige mice; format: in vivo, mouse; conditions: 3 mg/kg intraperitoneally daily days 7-14; imaging on day 42
Procedure: FIG. 22A-22C. Granaticin B is Effective Against Multiple Solid Tumors: granaticin B is efficacious against mouse models of melanoma (FIG. 22A), non-small cell lung cancer (FIG. 22B), and ovarian cancer (FIG. 22C). For the ovarian cancer experiments, SCID-Beige mice were injected with 5 million OVCAR3 cells that had been transduced with a GFP-firefly luciferase expressing plasmid (Frattini, M. G. and Brentjens, R. J., unpublished data). These cells were then injected intraperitoneally into 4 cohorts of mice on Day 1. From days 7-14 the mice were injected daily with the indicated concentrations of granaticin B in the intraperitoneal space. […] Nude mice were treated with 2.5 mg/kg/day granaticin B in a continuous fashion using osmotic diffusion pumps. Sections of the treated xenografts are shown after euthanasia at day 28 and H&E staining.

Chain of human recombinant Cdc7 (O00311 whole entry): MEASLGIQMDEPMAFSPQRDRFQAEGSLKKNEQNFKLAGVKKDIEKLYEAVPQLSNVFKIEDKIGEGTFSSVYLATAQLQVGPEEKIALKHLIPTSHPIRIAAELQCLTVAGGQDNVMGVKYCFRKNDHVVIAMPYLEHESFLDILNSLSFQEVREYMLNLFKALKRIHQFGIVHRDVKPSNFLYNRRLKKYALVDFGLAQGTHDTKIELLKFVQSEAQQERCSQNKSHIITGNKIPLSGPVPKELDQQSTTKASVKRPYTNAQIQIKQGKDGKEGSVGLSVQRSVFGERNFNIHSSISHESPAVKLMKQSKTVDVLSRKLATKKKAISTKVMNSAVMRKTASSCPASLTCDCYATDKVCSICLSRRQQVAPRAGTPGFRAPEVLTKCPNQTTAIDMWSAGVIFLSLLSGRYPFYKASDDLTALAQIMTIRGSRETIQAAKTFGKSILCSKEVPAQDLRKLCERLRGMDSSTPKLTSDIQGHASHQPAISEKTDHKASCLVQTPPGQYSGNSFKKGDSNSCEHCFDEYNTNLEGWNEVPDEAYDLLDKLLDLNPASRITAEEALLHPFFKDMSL
Chain of human recombinant Cdc7 (Q9UBU7 whole entry partner): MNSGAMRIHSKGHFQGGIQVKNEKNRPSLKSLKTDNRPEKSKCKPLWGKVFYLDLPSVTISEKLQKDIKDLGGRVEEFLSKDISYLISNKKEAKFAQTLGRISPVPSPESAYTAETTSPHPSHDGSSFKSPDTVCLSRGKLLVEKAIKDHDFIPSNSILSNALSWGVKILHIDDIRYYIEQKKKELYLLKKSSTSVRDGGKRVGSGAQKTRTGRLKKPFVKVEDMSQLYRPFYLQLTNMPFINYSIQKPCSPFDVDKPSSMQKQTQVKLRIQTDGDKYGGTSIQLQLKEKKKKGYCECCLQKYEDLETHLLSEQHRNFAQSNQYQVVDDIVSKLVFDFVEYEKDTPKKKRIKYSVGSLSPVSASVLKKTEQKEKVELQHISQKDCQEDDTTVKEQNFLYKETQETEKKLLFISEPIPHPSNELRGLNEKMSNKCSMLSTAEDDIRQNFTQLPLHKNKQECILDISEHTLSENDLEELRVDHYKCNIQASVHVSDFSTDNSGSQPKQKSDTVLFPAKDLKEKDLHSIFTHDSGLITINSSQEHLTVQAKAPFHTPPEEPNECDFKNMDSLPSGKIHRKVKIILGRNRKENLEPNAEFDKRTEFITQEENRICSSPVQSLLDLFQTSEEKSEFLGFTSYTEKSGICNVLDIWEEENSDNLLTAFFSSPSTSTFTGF

| Structure (SMILES) | Cdc7 kinase activity on Mcm2 [1] | disease by luciferase imaging [2] |
| --- | --- | --- |
| CC1OC2CC(O)C1(O)c1c(O)c3c(c(O)c12)C(=O)C1=C(C3=O)[C@H](C)O[C@H]2CC(=O)O[C@@H]12 (some centres unmarked) [Granaticin A, granaticin A] | small molecule inhibitor of Cdc7 kinase activity | – |
| CC1OC2CC(O[C@H]3CC[C@H](O)[C@H](C)O3)C1(O)c1c(O)c3c(c(O)c12)C(=O)C1=C(C3=O)[C@H](C)O[C@H]2CC(=O)O[C@@H]12 (some centres unmarked) [Granaticin B, granaticin B] | – | essentially no disease |
